Patent publication US8138175B2, “Heterocyclyl compounds” (Hoffmann-La Roche Inc., priority 2008, dated 2012)

Target: T1, human chemokine receptor 2 isoform B (Homo sapiens, UniProt P41597)
T1 construct: host or cells: CHOK1-CCR2B-A5 (CHO-K1) cells
T1 sequence (P41597 1-360 isoform P41597-2): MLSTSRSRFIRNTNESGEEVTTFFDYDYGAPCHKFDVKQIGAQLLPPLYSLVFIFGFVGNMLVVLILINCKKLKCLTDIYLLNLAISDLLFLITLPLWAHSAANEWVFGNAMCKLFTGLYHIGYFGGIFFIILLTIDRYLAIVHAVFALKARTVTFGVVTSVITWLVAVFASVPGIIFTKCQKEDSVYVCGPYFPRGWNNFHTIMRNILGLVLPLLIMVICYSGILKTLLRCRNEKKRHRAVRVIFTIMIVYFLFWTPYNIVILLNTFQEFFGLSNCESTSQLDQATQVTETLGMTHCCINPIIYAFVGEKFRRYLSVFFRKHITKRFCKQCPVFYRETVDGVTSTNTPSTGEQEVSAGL
Assay: Calcium mobilization assay
Type: cell-based
Conditions: Ca mobilization assay for CCR2; CHOK1-CCR2B-A5 cells; antagonist activity against 20 nM MCP-1; FLIPR, Fluo-4
Description: Calcium Mobilization Assay
CHOK1-CCR2B-A5 cells (from Euroscreen) stably overexpressing the human chemokine receptor 2 isoform B were cultured in Nutrient Hams F12 medium supplemented with 5% FBS, 100 U/ml penicillin, 100 μg/ml streptomycin, 400 μg/ml G418 and 5 μg/ml puromycin.
For the assay cells were grown overnight in 384-well black clear flat bottom polystyrene plates (Costar) at 37° C. at 5% CO2. After washing with DMEM, 20 mM Hepes, 2.5 mM probenecid, 0.1% BSA (DMEM assay buffer) cells were loaded with 4 μM Fluo-4 in the same DMEM assay buffer for 2 hours at 30° C. Excess dye was removed and cells were washed with DMEM assay buffer. 384-well compound plates were prepared with DMEM assay buffer/0.5% dimethyl sulfoxide with or without various concentrations of test compounds. Usually compounds were tested for agonist and antagonist activity.
Test compounds were added to the assay plate and agonist activity was monitored as fluorescence for 80 seconds with a FLIPR (488 nm excitation; 510-570 nm emission; Molecular Devices). After 20-30 min. of incubation at 30° C., 20 nM MCP-1 (R&D; Roche) was added and fluorescence was monitored again for 80 seconds. Increases in intracellular calcium are reported as maximum fluorescence after agonist exposure minus basal fluorescence before exposure. Antagonist activity is indicated as inhibitor concentration required for 50% inhibition of specific calcium increases.

Q: Which IC50 does the source give for COC(=O)[C@H](CCN1CCC2(CC2)[C@H](O)C1)N1CC(C)N(c2ccc(Cl)c(Cl)c2)CCC1=O (mixture of isomers) [Example 67, (S)-2-[(R,S)-4-(3,4-dichloro-phenyl)-3-methyl-7-oxo-[1,4]diazepan-1-yl]-4-((S)-4-hydroxy-6-aza-spiro[2.5]oct-6-yl)-butyric acid methyl ester] here?
A: Its IC50 is 52 nM.

Q: Which IC50 does the source give for CN(C)C(=O)C(CCCN1CCC(C)(O)CC1)N1CCN(c2cccc(C(F)(F)F)c2)CCC1=O (racemic) [Example 25, (rac)-5-(4-Hydroxy-4-methyl-piperidin-1-yl)-2-[7-oxo-4-(3-trifluoromethyl-phenyl)-[1,4]diazepan-1-yl]-pentanoic acid dimethylamide] here?
A: The IC50 was 200 nM.

Q: Which IC50 does the source give for COC(=O)C(CCCN1CCC(C)(O)CC1)N1CCN(c2cccc(C(F)(F)F)c2)CCC1=O (racemic) [Example 29, (rac)-5-(4-Hydroxy-4-methyl-piperidin-1-yl)-2-[7-oxo-4-(3-trifluoromethyl-phenyl)-[1,4]diazepan-1-yl]-pentanoic acid methyl ester] here?
A: Its IC50 is 640 nM.

Q: For CC1CN([C@@H](CO)CCN2CCC3(CC3)[C@H](O)C2)C(=O)CCN1c1ccc(Cl)c(Cl)c1 (mixture of isomers) [Example 68, (R,S)-1-(3,4-Dichloro-phenyl)-4-[(S)-3-((S)-4-hydroxy-6-aza-spiro[2.5]oct-6-yl)-1-hydroxymethyl-propyl]-2-methyl-[1,4]diazepan-5-one], which IC50 is on record?
A: The IC50 was 46 nM.

Q: CC1CN(C(CO)CCN2CCC3(CC3)[C@H](O)C2)C(=O)CCN1c1ccc(Cl)c(Cl)c1 (stereo in doubt) [Example 69, (R)-1-(3,4-Dichloro-phenyl)-4-[(S)-3-((S)-4-hydroxy-6-aza-spiro[2.5]oct-6-yl)-1-hydroxymethyl-propyl]-2-methyl-[1,4]diazepan-5-one] was tested. Which IC50 did it give?
A: Its IC50 is 11 nM.

Q: How did the IC50 turn out when COC(=O)[C@H](CCN1CCC2(CC2)[C@H](O)C1)N1CCN(c2ccc(Cl)c(Cl)c2)CCC1=O [Example 1, (S)-2-[4-(3,4-Dichloro-phenyl)-7-oxo-[1,4]diazepan-1-yl]-4-((S)-4-hydroxy-6-aza-spiro[2.5]oct-6-yl)-butyric acid methyl ester] was run?
A: The IC50 was 40 nM.

Q: Which IC50 does the source give for O=C1CCN(c2ccc(Cl)c(Cl)c2)CCN1[C@H](CO)CCN1CCC2(CC2)[C@H](O)C1 [Example 2, 1-(3,4-Dichloro-phenyl)-4-[(S)-3-((S)-4-hydroxy-6-aza-spiro[2.5]oct-6-yl)-1-hydroxymethyl-propyl]-[1,4]diazepan-5-one] here?
A: Its IC50 is 10 nM.

Q: How did the IC50 turn out when COC(=O)[C@H](CCN1CCC2(CC2)[C@H](O)C1)N1CCN(c2cccc(Cl)c2)CCC1=O [Example 3, (S)-2-[4-(3-Chloro-phenyl)-7-oxo-[1,4]diazepan-1-yl]-4-((S)-4-hydroxy-6-aza-spiro[2.5]oct-6-yl)-butyric acid methyl ester] was run?
A: The IC50 was 130 nM.

Q: With O=C1CCN(c2cccc(Cl)c2)CCN1[C@H](CO)CCN1CCC2(CC2)[C@H](O)C1 [Example 4, 1-(3-Chloro-phenyl)-4-[(S)-3-((S)-4-hydroxy-6-aza-spiro[2.5]oct-6-yl)-1-hydroxymethyl-propyl]-[1,4]diazepan-5-one] as the molecule, how does the IC50 read?
A: Its IC50 is 60 nM.

Q: COC(=O)[C@H](CCN1CCC2(CC2)[C@H](O)C1)N1CCN(c2cccc(C(F)(F)F)c2)CCC1=O [Example 5, (S)-4-((S)-4-Hydroxy-6-aza-spiro[2.5]oct-6-yl)-2-[7-oxo-4-(3-trifluoromethyl-phenyl)-[1,4]diazepan-1-yl]-butyric acid methyl ester] was tested. Which IC50 did it give?
A: Its IC50 is 20 nM.

Q: Which IC50 does the source give for O=C1CCN(c2cccc(C(F)(F)F)c2)CCN1[C@H](CO)CCN1CCC2(CC2)[C@H](O)C1 [Example 6, 4-[(S)-3-((S)-4-Hydroxy-6-aza-spiro[2.5]oct-6-yl)-1-hydroxymethyl-propyl]-1-(3-trifluoromethyl-phenyl)-[1,4]diazepan-5-one] here?
A: The IC50 was 10 nM.

Q: For COC(=O)[C@H](CCN1C[C@@H](C)C[C@H](O)C1)N1CCN(c2cccc(C(F)(F)F)c2)CCC1=O [Example 7, (S)-4-((3S,5S)-3-Hydroxy-5-methyl-piperidin-1-yl)-2-[7-oxo-4-(3-trifluoromethyl-phenyl)-[1,4]diazepan-1-yl]-butyric acid methyl ester], which IC50 is on record?
A: The IC50 was 90 nM.

Q: How did the IC50 turn out when COC(=O)[C@@H](CCN1CCC2(CC2)[C@H](O)C1)N1CCN(c2cccc(C(F)(F)F)c2)CCC1=O [Example 8, (R)-4-((S)-4-Hydroxy-6-aza-spiro[2.5]oct-6-yl)-2-[7-oxo-4-(3-trifluoromethyl-phenyl)-[1,4]diazepan-1-yl]-butyric acid methyl ester] was run?
A: The IC50 was 600 nM.

Q: For O=C1CCN(c2cccc(C(F)(F)F)c2)CCN1[C@@H](CO)CCN1CCC2(CC2)[C@H](O)C1 [Example 9, 4-[(R)-3-((S)-4-Hydroxy-6-aza-spiro[2.5]oct-6-yl)-1-hydroxymethyl-propyl]-1-(3-trifluoromethyl-phenyl)-[1,4]diazepan-5-one], which IC50 is on record?
A: The IC50 was 180 nM.

Q: How did the IC50 turn out when COC(=O)[C@H](CCN1CCC2(CC2)[C@H](O)C1)N1CCN(c2ccc(OC(F)(F)F)cc2)CCC1=O [Example 11, (S)-4-((S)-4-Hydroxy-6-aza-spiro[2.5]oct-6-yl)-2-[7-oxo-4-(4-trifluoromethoxy-phenyl)-[1,4]diazepan-1-yl]-butyric acid methyl ester] was run?
A: The IC50 was 400 nM.

Q: For O=C1CCN(c2ccc(OC(F)(F)F)cc2)CCN1[C@H](CO)CCN1CCC2(CC2)[C@H](O)C1 [Example 12, 4-[(S)-3-((S)-4-Hydroxy-6-aza-spiro[2.5]oct-6-yl)-1-hydroxymethyl-propyl]-1-(4-trifluoromethoxy-phenyl)-[1,4]diazepan-5-one], which IC50 is on record?
A: Its IC50 is 120 nM.

Q: For COC(=O)[C@H](CCN1CCC2(CC2)[C@H](O)C1)N1CCN(c2cccc(OC(F)(F)F)c2)CCC1=O [Example 13, (S)-4-((S)-4-Hydroxy-6-aza-spiro[2.5]oct-6-yl)-2-[7-oxo-4-(3-trifluoromethoxy-phenyl)-[1,4]diazepan-1-yl]-butyric acid methyl ester], which IC50 is on record?
A: Its IC50 is 30 nM.

Q: O=C1CCN(c2cccc(OC(F)(F)F)c2)CCN1[C@H](CO)CCN1CCC2(CC2)[C@H](O)C1 [Example 14, 4-[(S)-3-((S)-4-Hydroxy-6-aza-spiro[2.5]oct-6-yl)-1-hydroxymethyl-propyl]-1-(3-trifluoromethoxy-phenyl)-[1,4]diazepan-5-one] was tested. Which IC50 did it give?
A: Its IC50 is 10 nM.

Q: For COC(=O)C(CCN1CCC2(CC2)[C@H](O)C1)N1CCN(c2cccc(C(F)(F)F)c2)CCC1=O (stereo partly drawn) [Example 15, (R,S)-4-((S)-4-Hydroxy-6-aza-spiro[2.5]oct-6-yl)-2-[7-oxo-4-(3-trifluoromethyl-phenyl)-[1,4]diazepan-1-yl]-butyric acid methyl ester], which IC50 is on record?
A: The IC50 was 60 nM.

Q: O=C1CCN(c2cccc(C(F)(F)F)c2)CCN1C(CO)CCN1CCC2(CC2)[C@H](O)C1 (stereo partly drawn) [Example 16, 4-[(R,S)-3-((S)-4-Hydroxy-6-aza-spiro[2.5]oct-6-yl)-1-hydroxymethyl-propyl]-1-(3-trifluoromethyl-phenyl)-[1,4]diazepan-5-one] was tested. Which IC50 did it give?
A: The IC50 was 10 nM.

Q: For CN(C)C(=O)C(CCN1CCC2(CC2)[C@H](O)C1)N1CCN(c2cccc(C(F)(F)F)c2)CCC1=O (stereo partly drawn) [Example 17, (R,S)-4-((S)-4-Hydroxy-6-aza-spiro[2.5]oct-6-yl)-N,N-dimethyl-2-[7-oxo-4-(3-trifluoromethyl-phenyl)-[1,4]diazepan-1-yl]-butyramide], which IC50 is on record?
A: The IC50 was 140 nM.

Q: For C[C@H]1C[C@H](O)CN(CCC(C(=O)N(C)C)N2CCN(c3cccc(C(F)(F)F)c3)CCC2=O)C1 (stereo partly drawn) [Example 18, (R,S)-4-((3S,5S)-3-Hydroxy-5-methyl-piperidin-1-yl)-N,N-dimethyl-2-[7-oxo-4-(3-trifluoromethyl-phenyl)-[1,4]diazepan-1-yl]-butyramide], which IC50 is on record?
A: Its IC50 is 650 nM.

Q: COC(=O)[C@H](CCN1CCC2(CC2)[C@H](O)C1)N1CCN(c2ccc(C(F)(F)F)cc2)CCC1=O [Example 19, (S)-4-((S)-4-Hydroxy-6-aza-spiro[2.5]oct-6-yl)-2-[7-oxo-4-(4-trifluoromethyl-phenyl)-[1,4]diazepan-1-yl]-butyric acid methyl ester] was tested. Which IC50 did it give?
A: Its IC50 is 410 nM.

Q: How did the IC50 turn out when O=C1CCN(c2ccc(C(F)(F)F)cc2)CCN1[C@H](CO)CCN1CCC2(CC2)[C@H](O)C1 [Example 20, 4-[(S)-3-((S)-4-Hydroxy-6-aza-spiro[2.5]oct-6-yl)-1-hydroxymethyl-propyl]-1-(4-trifluoromethyl-phenyl)-[1,4]diazepan-5-one] was run?
A: Its IC50 is 350 nM.

Q: For CN(C)C(=O)[C@H](CCN1CCC2(CC2)[C@H](O)C1)N1CCN(c2cccc(C(F)(F)F)c2)CCC1=O [Example 22, (S)-4-((S)-4-Hydroxy-6-aza-spiro[2.5]oct-6-yl)-N,N-dimethyl-2-[7-oxo-4-(3-trifluoromethyl-phenyl)-[1,4]diazepan-1-yl]-butyramide], which IC50 is on record?
A: Its IC50 is 100 nM.
